From patent US4596873A, “1,4,5,6,7,8-Hexahydro-2-alkyl-4-aryl-5-oxo-1,7-naphthyridine-3-carboxyl ic acid aromatic esters and pharmaceutically acceptable acid addition salts thereof useful as antihypertensive agents” (American Home Products Corporation, priority 1985, dated 1986)

What was measured:
[1] = test system: spontaneously hypertensive rats; test: decrease in systolic blood pressure of spontaneously hypertensive rats; type: in vivo, rat
[2] = test system: arterial actin-myosin interactions; test: inhibition of superprecipitation (antagonism of arterial actin-myosin interaction); type: biochemical; details: six minute time-point, mean±SEM
Experimental: (§1) The data reported herein was obtained at a six minute time-point rather than the 1.5, 5 and 12 minute time points indicated in the superprecipitation assay of the Silver et al. paper.
(§2) The following examples illustrate the preparation of a representative number of compounds of this invention. After each example, and Ca^+2 antagonist activity of the compound is presented in terms of percent relaxation of aortic tissue (P.R.) at 10^-5 M concentration. […] Inhibition of superprecipitation (Antag. of Actin-Myosin interaction) is expressed as percent inhibition (mean±standard error of the mean for at least 3 separate experiments) at a compound concentration. In the same manner, inhibition of myosin light chain phosphorylation (Antag. of MLCP) is expressed as a percent inhibition at a compound concentration. Similarly, the antihypertensive activity is reported in terms of millimeters mercury (mmHg) systolic blood pressure (B.P.) reduction at the stated time post 50 mg/kg oral dosing or other dosing as indicated.

[3] = test system: isolated paced intact rabbit atria; test: negative inotropic (cardiac depressant) effect in isolated paced intact rabbit atria; type: cell-based; details: for IC25: Oryctolagus cuniculus, read-out: IC25 (concentration which produces 25% inhibition of isometric force)
Experimental: The potential for detrimental cardiac depressant (negative inotropic) effects of the compounds of this invention was assessed in isolated paced intact rabbit atria. Left and right atria (with nodal tissue excised) were suspended vertically in a jacketed (30° C.) organ bath containing 50 ml of PSS and aerated with 95% O2 /5% CO2. Muscles (N=5-9/compound) were stimulated at a frequency of 3 Hz with a WPI stimulator for a 60 minute equilibration period. Changes in isometric force were recorded as described for the aortic smooth muscle experiments,supra. Following equilibration, the test compound (or as a control, the ethanol vehicle) was added to the organ bath in a cumulative manner from doses ranging from 10^-9 M to 10^-5 M (10^-5 M was the maximum dose which could be attained due to the depressant effect of ethanol) and effects on developed isometric force were determined.
as §2

[4] = test system: Ca^+2 -calmodulin dependent myosin light chain phosphorylation; test: inhibition of Ca^+2-calmodulin dependent myosin light chain phosphorylation (MLCP); type: biochemical
Experimental: as §1, §2

[5] = 3 Hz, cumulative 10^-9 M to 10^-5 M

SMILES | systolic blood pressure (B.P.) reduction ([1]; 25 mg/kg, 1.5 hours) [mmHg] | systolic blood pressure (B.P.) reduction ([1]; 25 mg/kg, 4 hours) [mmHg] | inhibition of superprecipitation (Antag. of Actin-Myosin) ([2]; 50 μM) [%] | inhibition of superprecipitation (Antag. of Actin-Myosin) ([2]; 100 μM) [%] | IC25 [3, 5] [µM] | inhibition of myosin light chain phosphorylation (Antag. of MLCP) ([4]; 50 μM) [%] | inhibition of myosin light chain phosphorylation (Antag. of MLCP) ([4]; 100 μM) [%] | cardiac depression / negative inotropism (in words) [3] | other results
COC(COC(=O)C1=C(C)NC2=C(C(=O)CNC2)C1c1c(F)c(F)c(F)c(F)c1F)c1ccccc1 (stereo not shown) [Example 5, 1,4,5,6,7,8-Hexahydro-2-methyl-5-oxo-4-(pentafluorophenyl)-1,7-naphthryridine-3-carboxylic acid 2-methoxy-2-phenylethyl ester] | -60 | -72 | 50±5 | 75±4 | 1 | 48±2 | 70±3 |  | systolic blood pressure (B.P.) reduction ([1]; 5 mg/kg, 1.5 hours): -44 mmHg; systolic blood pressure (B.P.) reduction ([1]; 5 mg/kg, 4 hours): -38 mmHg; systolic blood pressure (B.P.) reduction ([1]; 10 mg/kg, 1.5 hours): -41 mmHg; systolic blood pressure (B.P.) reduction ([1]; 10 mg/kg, 4 hours): -68 mmHg; inhibition of superprecipitation (Antag. of Actin-Myosin) ([2]; 25 μM): 20±5%; inhibition of myosin light chain phosphorylation (Antag. of MLCP) ([4]; 25 μM): 21±3%
COc1ccc(CCN(C)CCCC(C#N)(c2ccc(OC)c(OC)c2)C(C)C)cc1OC (stereo not shown) [Verapamil, reference compound] |  |  |  |  |  |  |  | direct negative inotropism | 
CC1=C(C(=O)OCCOc2ccccc2)C(c2c(F)c(F)c(F)c(F)c2F)C2=C(CNCC2=O)N1 (single isomer, unassigned; (+)) [Example 4, (+)-1,4,5,6,7,8-Hexahydro-2-methyl-5-oxo-4-(pentafluorophenyl)-1,7-naphthyridine-3-carboxylic acid 2-phenoxyethyl ester] | -58 | -78 | 38 | 71 |  | 37 | 67 |  | IC25 (concentration which produces 25% inhibition of isometric force) [3, 5]: 800 nM
CCOC(=O)C1=C(C)NC(C)=C(C(=O)OC)C1c1cccc([N+](=O)[O-])c1 (stereo not shown) [nitrendipine, reference compound] |  |  |  |  |  |  |  | direct negative inotropism | 
CC1=C(C(=O)OCCOc2cccc(Cl)c2Cl)C(c2c(F)c(F)c(F)c(F)c2F)C2=C(CNCC2=O)N1 (stereo not shown) [Example 22, 1,4,5,6,7,8-Hexahydro-2-methyl-5-oxo-4-(pentafluorophenyl)-1,7-naphthyridine-3-carboxylic acid 2-(2,3-dichlorophenoxy)ethyl ester] | -37 | -52 | 75±4 | 78±1 | 1 | 73±1.5 | 74±2 |  | inhibition of superprecipitation (Antag. of Actin-Myosin) ([2]; 10 μM): 30±3%; inhibition of superprecipitation (Antag. of Actin-Myosin) ([2]; 25 μM): 54±3%; inhibition of myosin light chain phosphorylation (Antag. of MLCP) ([4]; 10 μM): 25%; inhibition of myosin light chain phosphorylation (Antag. of MLCP) ([4]; 25 μM): 54±2.5%
CCOC(=O)C1=C(C)NC(C)=C(C(=O)OC)C1c1cccc(Cl)c1Cl (stereo not shown) [felodipine] |  |  |  |  | 0.8 |  |  | direct negative inotropism | 
CC1=C(C(=O)OCCc2ccccc2)C(c2c(F)c(F)c(F)c(F)c2F)C2=C(CNCC2=O)N1 (stereo not shown) [Example 18, 1,4,5,6,7,8-Hexahydro-2-methyl-5-oxo-4-(pentafluorophenyl)-1,7-naphthyridine-3-carboxylic acid 2-phenylethyl ester] |  |  | 65 | 78±2 |  | 64 | 77±3 |  | systolic blood pressure (B.P.) reduction ([1]; 10 mg/kg, 1.5 hours): -27 mmHg; systolic blood pressure (B.P.) reduction ([1]; 10 mg/kg, 4 hours): -24 mmHg; inhibition of superprecipitation (Antag. of Actin-Myosin) ([2]; 25 μM): 42%; inhibition of myosin light chain phosphorylation (Antag. of MLCP) ([4]; 25 μM): 35%
CC1=C(C(=O)OCCOc2ccccc2)C(c2c(F)ccc(C)c2Cl)C2=C(CNCC2=O)N1 (stereo not shown) [Example 23, 4-(2-chloro-6-fluoro-3-methylphenyl)-1,4,5,6,7,8-hexahydro-2-methyl-5-oxo-1,7-naphthyridine-3-carboxylic acid 2-phenoxyethyl ester] | -22 | -31 | 23 | 62 |  | 18 | 56 |  | 
COC(=O)C1=C(C)NC(C)=C(C(=O)OC)C1c1ccccc1[N+](=O)[O-] [nifedipine, reference compound] |  |  |  |  |  |  |  | direct negative inotropism | 
CO[C@H](COC(=O)C1=C(C)NC2=C(C(=O)CNC2)C1c1c(F)c(F)c(F)c(F)c1F)c1ccccc1 (stereo partly drawn) [Example 7, 1,4,5,6,7,8-Hexahydro-2-methyl-5-oxo-4-(pentafluorophenyl)-1,7-naphthyridine-3-carboxylic acid (S)-2-methoxy-2-phenylethyl ester] |  |  | 67 | 80 | 6.5 | 59 | 74 |  | systolic blood pressure (B.P.) reduction ([1]; 10 mg/kg, 1.5 hours): -51 mmHg; systolic blood pressure (B.P.) reduction ([1]; 10 mg/kg, 4 hours): -54 mmHg
CC1=C(C(=O)OCCOc2ccccc2)C(c2cccc(Cl)c2Cl)C2=C(CNCC2=O)N1.Cl (stereo not shown) [Example 19, 4-(2,3-Dichlorophenyl)-1,4,5,6,7,8-hexahydro-2-methyl-5-oxo-1,7-naphthyridine-3-carboxylic acid 2-phenoxyethyl ester, hydrochloride] |  |  |  | 71 |  |  | 69 |  | systolic blood pressure (B.P.) reduction ([1]; 50 mg/kg oral, 1.5 hours): -50 mmHg; systolic blood pressure (B.P.) reduction ([1]; 50 mg/kg oral, 4 hours): -73 mmHg
CC1=C(C(=O)OCCOc2ccccc2)C(c2c(F)ccc(F)c2F)C2=C(CNCC2=O)N1 (stereo not shown) [Example 16, 1,4,5,6,7,8-Hexahydro-2-methyl-5-oxo-4-(2,3,6-trifluorophenyl)-1,7-naphthyrdine-3-carboxylic acid 2-phenoxyethyl ester] |  | -18 |  | 34 |  |  | 28 |  | 
